Patent US11820822B2, “Methods for sensitizing cancer cells to T cell-mediated killing by modulating molecular pathways” (DANA-FARBER CANCER INSTITUTE, INC., priority 2017, dated 2023)

Experiments:
Type in all cases: cell-based, mouse
[1] = tested on: B16F10-Cas9 cells co-cultured with Pmel-1 T cells; test: Genome-scale CRISPR-Cas9 screen, selection with Pmel-1 T cells; details: Table 3; B16F10-Cas9 cells pre-treated with IFNγ, co-cultured with Pmel-1 T cells 1:1 for three days; negative = depleted, positive = enriched
[2] = tested on: B16F10-Cas9 cells pulsed with SIINFEKL peptide, co-cultured with OT-I T cells; test: Genome-scale CRISPR-Cas9 screen, selection with OT-I T cells; details: Table 3; B16F10-Cas9 cells pulsed with SIINFEKL, co-cultured with OT-I T cells 1:1 for one day; negative = depleted, positive = enriched
[3] = tested on: Otulin, Dusp6 and Nf1 knockout B16F10 cells; test: Doxorubicin-induced cell death; details: Dusp6 or Nf1 inactivated B16F10-Cas9 cells vs control cells, 24 or 48 hours
Experimental: The knockout cell lines (GFP+) were mixed with control cells (GFP−) at 1:1 ratio. The mixture of cells was then seeded at 200,000 cells/well in a 6-well plate. Eighteen hours after seeding, different doses of doxorubicin (Sigma-Aldrich, D1515) as indicated in FIG. 11 were added to the cell culture (triplicate wells per condition). After 24 or 48 hours, cells were harvested and stained with DAPI (5 μg/ml) for 5 minutes in PBS with 2% FBS at room temperature. The ratio of GFP+/GFP−was determined by FACS (gated on DAPI− for live cells).

B16F10-Cas9 cells = test: PD-L1 expression by FACS after IFNγ stimulation (Cas9 editing efficiency of B16F10-Cas9 clones); details: B16F10 tumor cells, IFNγ 10 ng/ml for 24 hours
Experimental: To acquire clones with high Cas9 activity, B16F10-Cas9 cells were single-cell sorted into 96-well plates. Multiple were infected with lentivirus driving expression of a gRNA specific for Cd274 and mCherry. Ten days post-infection, each individual clone was stimulated with 10 ng/ml of IFNγ for 24 hours and the expression of PD-L1 was determined by fluorescence-activated cells sorting (FACS) using an anti-Cd274 antibody (clone 10F.9G2, BioLegend, #124311). Cas9 efficiency was determined by the percentage of PD-L1 negative cells in the transduced (mCherry+) population.

| Molecule | Pmel+ (sgRNA Log(2) fold change, Pmel-1 selection versus control T cells) [1] | OT1 (sgRNA Log(2) fold change, OT-I selection versus control T cells) [2] | sensitivity to doxorubicin induced cell death [3] | PD-L1 expression (B16F10-Cas9 cells) |
| --- | --- | --- | --- | --- |
| GGACAAGACATGGAGACAGA (chemistry not fully specified) | 0.83 | -2.11 | – | – |
| TCCCTTTGATGTGTTCCACG (chemistry not fully specified) | 4.23 | 3.40 | – | – |
| CGACGCAAGTGGGAGCAGAG (chemistry not fully specified) | 3.91 | -2.09 | – | – |
| CGATGCCATTCGAATGACAG (chemistry not fully specified) | 8.40 | 1.57 | – | – |
| ACAGATACGGAGTGTCCCGT (chemistry not fully specified) | 1.90 | 2.85 | – | – |
| COc1cccc2c1C(=O)c1c(O)c3c(c(O)c1C2=O)C[C@@](O)(C(=O)CO)C[C@@H]3O[C@H]1C[C@H](N)[C@H](O)[C@H](C)O1 [doxorubicin] | – | – | did not render them more sensitive | – |
| GAAAAGCAAGCGTAATCTCC (chemistry not fully specified) | 8.13 | 2.70 | – | – |
| CTGTTACCTTCATAGATAAG (chemistry not fully specified) | 0.00 | -2.50 | – | – |
| AGAAGGCAGGCAGAGTGGTG (chemistry not fully specified) | -0.75 | -2.13 | – | – |
| TCAGGATGCTGTGATAAGCG (chemistry not fully specified) | 2.98 | -0.67 | – | – |
| AGAAGCCACTCGGACTACTG (chemistry not fully specified) | 2.77 | -0.30 | – | – |
| GCTGTTACTCCAGAGACACA (chemistry not fully specified) | -2.27 | -0.23 | – | – |
| CCATATCCAAATAGCCACAG (chemistry not fully specified) | -2.19 | -3.59 | – | – |
| TGGACATGAGCCATATGTTG (chemistry not fully specified) | 3.35 | -0.14 | – | – |
| GAATGATATTATAGCGACGA (chemistry not fully specified) | 0.59 | -2.20 | – | – |
| GGACGAGAGCAACATAAACA (chemistry not fully specified) | 2.15 | -0.03 | – | – |

| Molecule | Pmel+ (sgRNA Log(2) fold change, Pmel-1 selection versus control T cells) [1] | OT1 (sgRNA Log(2) fold change, OT-I selection versus control T cells) [2] | sensitivity to doxorubicin induced cell death [3] | PD-L1 expression (B16F10-Cas9 cells) |
| --- | --- | --- | --- | --- |
| ACTAATGGACTCGCACACGT (chemistry not fully specified) | 2.09 | -0.42 | – | – |
| AACTTCAGTAGCGGGCGACG (chemistry not fully specified) | 0.00 | -2.23 | – | – |
| GGTCATACTTAAAAGCACAA (chemistry not fully specified) | -0.81 | -2.07 | – | – |
| TTACCCCCTACTACACTGGA (chemistry not fully specified) | -2.24 | -2.56 | – | – |
| GAATACGAAGCAGAAAAGGT (chemistry not fully specified) | 0.00 | -2.50 | – | – |
| TGGTCTAGTTACCATGCAAG (chemistry not fully specified) | -0.83 | -3.50 | – | – |
| CCTTCAATAACGTTAAACAG (chemistry not fully specified) | -0.26 | -2.79 | – | – |
| GGAAACGTGGCATGTCTCGG (chemistry not fully specified) | 2.66 | 1.93 | – | – |
| TTCAAAGCAAGGCTCTACTG (chemistry not fully specified) | -0.93 | -2.28 | – | – |
| CTGCACCAATGTTGGTCACG (chemistry not fully specified) | 2.82 | 0.32 | – | – |
| ACTTCAAAGTCCATGGCACA (chemistry not fully specified) | -0.63 | -2.45 | – | – |
| AGAGATCTGCGCCATTTAAG (chemistry not fully specified) | -0.91 | -3.28 | – | – |
| ATAGCACCAAAGCCTAACAA (chemistry not fully specified) | 0.00 | -2.27 | – | – |
| GAGTTGCAGCCAGATACGCG (chemistry not fully specified) | -1.28 | -3.25 | – | – |
| CTCTTCCAACACGTCCAAGT (chemistry not fully specified) | 3.56 | 0.64 | – | – |
| IFNγ: cytokine used to stimulate B16F10 cells (protein, UniProt P01580 23-155, looked up) Interferon gamma: HGTVIESLESLNNYFNSSGIDVEEKSLFLDIWRNWQKDGDMKILQSQIISFYLRLFEVLKDNQAISNNISVIESHLITTFFSNSKAKKDAFMSIAKFEVNNPQVQRQAFNELIRVVHQLLPESSLRKRKRSRC | – | – | – | strong upregulation |
